Assay results from US7638535B2, “4-(aminomethyl)-piperidine benzamides as 5HT4-antagonists” (Janssen Pharmaceutica N.V., priority 2003, dated 2009).

What follows are compounds tested against T1, h5-HT4b (Homo sapiens, UniProt Q13639) (assay: 5HT4 antagonism: [3H]GR113808 binding to membranes of h5-HT4b-HEK 293 clone 9 cells). Details: displacement of [3H]GR113808 0.1 nM, h5-HT4b-HEK 293 membranes, 30 min at 25° C.; read-out: pIC50 (5HT4 antagonistic data) (converted).
T1 construct: expressed in transfected cells; host or cells: HEK 293 (clone 9), membrane preparation
T1 sequence (Q13639 whole entry): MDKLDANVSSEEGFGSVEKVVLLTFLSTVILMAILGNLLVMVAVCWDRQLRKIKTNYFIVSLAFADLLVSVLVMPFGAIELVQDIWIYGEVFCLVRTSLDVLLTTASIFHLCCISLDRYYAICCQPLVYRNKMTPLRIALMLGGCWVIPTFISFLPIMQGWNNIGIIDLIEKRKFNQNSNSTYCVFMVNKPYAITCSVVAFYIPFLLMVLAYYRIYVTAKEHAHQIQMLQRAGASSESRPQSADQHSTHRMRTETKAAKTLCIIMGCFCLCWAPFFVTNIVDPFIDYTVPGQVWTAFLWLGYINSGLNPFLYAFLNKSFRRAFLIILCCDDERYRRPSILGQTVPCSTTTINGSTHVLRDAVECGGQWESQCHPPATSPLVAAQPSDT
Description: h5-HT4b-HEK 293 clone 9 cells were cultured in 150 mm Petri dishes and washed twice with cold PBS. The cells were then scraped from the plates and suspended in 50 mM Tris-HCl buffer, pH 7.4 and harvested by centrifugation at 23,500 rpm for 10 minutes. The pellet was resuspended in 5 mM Tris-HCl, pH 7.4 and homogenized with an Ultra Turrax homogenizer. The membranes were collected by centrifugation at 30,000 rpm for 20 min, resuspended in 50 mM Tris-HCl pH 7.4 and stored at −80° C. For the experiment, assay mixtures (0.5 ml) contained 50 μl of the tritiated ligand (5-HT4 antagonist [^3H]GR113808 0.1 nM) and 0.4 ml membrane preparation (15 μg protein/ml). 50 μl of 10% DMSO was added for total binding. 50 μl of 1 μM of (+)-trans-(1-butyl-3-hydroxy-4-piperidinyl)methyl 8-amino-7-chloro-2,3-dihydro-1,4-benzodioxin-5-carboxylate (a proprietary 5HT4 agonist of Janssen Pharmaceutica) was added for determination of non-specific binding.
The [^3H]GR113808 assay buffer was 50 mM HEPES-NaOH, pH 7.4. The mixtures were incubated for 30 min at 25° C. The incubation was terminated by filtration over a Unifilter 96 GF/B presoaked in 0.1% polyethylenimine, followed by six washing steps with 50 mM HEPES-NaOH, pH 7.4.

| SMILES | IC50 [nM] |
| --- | --- |
| Nc1cc2c(c(C(=O)NC[C@@H]3CCN(CC4CCCO4)C[C@H]3O)c1)OCCCO2 (stereo partly drawn) [compound 4] | 69.2 |
| Cc1cc2c(c(C(=O)NC[C@@H]3CCN(CCCc4ccc(O)cc4)C[C@H]3O)c1)OCCCO2 [compound 233] | 0.355 |
| CS(=O)(=O)NCCN1CC[C@@H](CNC(=O)c2cc(N)c(Cl)c3c2OCCCO3)[C@H](O)C1 [compound 75] | 30.9 |
| COCCCN1CC[C@@H](CNC(=O)c2cc(C#N)cc3c2OCCCO3)[C@H](OC)C1 [compound 235] | 37.2 |
| CNc1cc2c(c(C(=O)NC[C@@H]3CCN(CCCOC4CCCCC4)C[C@H]3O)c1)OCCCO2 [compound 34] | 31.6 |
| CC(=O)CCCN1CC[C@@H](CNC(=O)c2cc(N)cc3c2OCCO3)[C@H](O)C1 [compound 83] | 14.8 |
| N#Cc1cc2c(c(C(=O)NC[C@@H]3CCNC[C@H]3O)c1)OCCCO2 [compound 175] | 123 |
| CNc1cc(C(=O)NC[C@@H]2CCNC[C@H]2O)c2c(c1Cl)OCCO2 [compound 105] | 437 |
| CNc1cc2c(c(C(=O)NC[C@@H]3CCN(CCOCCO)C[C@H]3O)c1)OCCO2 [compound 84] | 93.3 |
| Cc1cc2c(c(C(=O)NC[C@@H]3CCN(CCCCNc4nccnc4C)C[C@H]3O)c1)OCCCO2 [compound 231] | 0.776 |
| Cc1cc2c(c(C(=O)NC[C@@H]3CCN(CC4CC4)C[C@H]3O)c1)OCCCO2 [compound 218] | 0.776 |
| CCCCN1CC[C@@H](CNC(=O)c2cc(COC)cc3c2OCCCO3)[C@H](O)C1 [compound 119] | 8.91 |
| CO[C@@H]1CNCC[C@H]1CNC(=O)c1cc(C#N)cc2c1OCCCO2 [compound 203] | 1350 |
| Cc1cc2c(c(C(=O)NC[C@@H]3CCN(CCC#N)C[C@H]3O)c1)OCCCO2 [compound 201] | 14.5 |
| Cc1cc2c(c(C(=O)NCC3(O)CCN(CCCC(N)=O)CC3)c1)OCCCO2 [compound 253] | 31.6 |
| COCc1cc2c(c(C(=O)NC[C@@H]3CCNC[C@H]3O)c1)OCCCO2 [compound 190] | 269 |
| CCCCN1CC[C@@H](CNC(=O)c2cc(NC)cc3c2OCCCO3)[C@H](O)C1 [compound 114] | 8.32 |
| CNc1cc2c(c(C(=O)NC[C@@H]3CCN(CCCCOC)C[C@H]3O)c1)OCCCO2 [compound 62] | 81.3 |
| CO[C@@H]1CN(CCCO)CC[C@H]1CNC(=O)c1cc(C)cc2c1OCCCO2 [compound 210] | 5.25 |

| SMILES | IC50 [nM] |
| --- | --- |
| Nc1cc2c(c(C(=O)NC[C@@H]3CCN(CCCO)C[C@H]3O)c1)OCCCO2 [compound 112] | 13.2 |
| COCCN1CC[C@@H](CNC(=O)c2cc(N)cc3c2OCCCO3)[C@H](O)C1 [compound 45] | 135 |
| COCCCCN1CC[C@@H](CNC(=O)c2cc(N)c(Cl)c3c2OCCO3)[C@H](O)C1 [compound 29] | 11 |
| CNCCCCN1CC[C@@H](CNC(=O)c2cc(N)c(Cl)c3c2OCCCO3)[C@H](O)C1 [compound 94] | 34.7 |
| CS(=O)(=O)NCCN1CC[C@@H](CNC(=O)c2cc(N)cc3c2OCCCO3)[C@H](O)C1 [compound 99] | 72.4 |
| CCCCN1CC[C@@H](CNC(=O)c2cc(NCCC)cc3c2OCCCO3)[C@H](O)C1 [compound 134] | 95.5 |
| CCNc1cc2c(c(C(=O)NC[C@@H]3CCN(CCC4OCCO4)C[C@H]3O)c1)OCCCO2 [compound 176] | 16.2 |
| COCCN1CC[C@@H](CNC(=O)c2cc(N)c(Cl)c3c2OCCO3)[C@H](O)C1 [compound 42] | 18.6 |
| CCCNc1cc2c(c(C(=O)NC[C@@H]3CCN(CCCOC)C[C@H]3O)c1)OCCCO2 [compound 148] | 100 |
| Nc1cc(C(=O)NC[C@@H]2CCNC[C@H]2O)c2c(c1Br)OCCCO2 [compound 142] | 1150 |
| CCCCN1CC[C@@H](CNC(=O)c2cc(NC)c(Cl)c3c2OCCO3)[C@H](O)C1 [compound 28] | 15.5 |
| CNc1cc2c(c(C(=O)NC[C@@H]3CCN(CCNS(C)(=O)=O)C[C@H]3O)c1)OCCO2 [compound 103] | 22.9 |
| CNCCCCN1CC[C@@H](CNC(=O)c2cc(C#N)cc3c2OCCCO3)[C@H](O)C1 [compound 171] | 1.62 |
| CCCNc1cc2c(c(C(=O)NC[C@@H]3CCN(CCC4OCCO4)C[C@H]3O)c1)OCCCO2 [compound 135] | 93.3 |
| CC(C)Nc1cc2c(c(C(=O)NC[C@@H]3CCN(CCCC#N)C[C@H]3O)c1)OCCCO2 [compound 172] | 107 |
| CC(C)Nc1cc2c(c(C(=O)NC[C@@H]3CCNC[C@H]3O)c1)OCCCO2 [compound 167] | 2400 |
| CO[C@@H]1CN(CCCNS(C)(=O)=O)CC[C@H]1CNC(=O)c1cc(C)cc2c1OCCCO2 [compound 221] | 3.09 |
| CC(=O)CCCN1CC[C@@H](CNC(=O)c2cc(N)c(Cl)c3c2OCCCO3)[C@H](O)C1 [compound 80] | 7.59 |
| CNCCCCN1CC[C@@H](CNC(=O)c2cc(N)cc3c2OCCO3)[C@H](O)C1 [compound 104] | 33.9 |

| SMILES | IC50 [nM] |
| --- | --- |
| CC(C)OCCCN1CC[C@@H](CNC(=O)c2cc(N)c(Cl)c3c2OCCCO3)[C@H](O)C1 [compound 96] | 6.17 |
| Cc1cc2c(c(C(=O)NC[C@@H]3CCN(CCCC(=O)O)C[C@H]3O)c1)OCCCO2 [compound 192] | 30.9 |
| CCCCN1CC[C@H](CNC(=O)c2cc(C)cc3c2OCCCO3)[C@H](O)C1 [compound 242] | 0.794 |
| Cc1cc2c(c(C(=O)NC[C@@H]3CCN(CCCc4ccncc4)C[C@H]3O)c1)OCCCO2 [compound 232] | 0.398 |
| CC(C)OCCCN1CC[C@@H](CNC(=O)c2cc(N)cc3c2OCCCO3)[C@H](O)C1 [compound 37] | 36.3 |
| Nc1cc(C(=O)NC[C@@H]2CCN(CCC3OCCO3)C[C@H]2O)c2c(c1Cl)OCCO2 [compound 14] | 16.6 |
| Nc1cc(C(=O)NC[C@@H]2CCN(Cc3ccc(F)cc3)C[C@H]2O)c2c(c1Cl)OCCCO2 [compound 78] | 9.33 |
| CNc1cc2c(c(C(=O)NC[C@@H]3CCN(CCOCCO)C[C@H]3O)c1)OCCCO2 [compound 67] | 479 |
| CNc1cc(C(=O)NC[C@@H]2CCN(CCCO)C[C@H]2O)c2c(c1Cl)OCCO2 [compound 100] | 16.6 |
| CS(=O)(=O)NCCN1CC[C@@H](CNC(=O)c2cc(N)cc3c2OCCO3)[C@H](O)C1 [compound 132] | 91.2 |
| Nc1cc2c(c(C(=O)NC[C@@H]3CCN(CCCOC4CCCCC4)C[C@H]3O)c1)OCCO2 [compound 85] | 6.31 |
| CNc1cc2c(c(C(=O)NC[C@@H]3CCN(CCCCO)C[C@H]3O)c1)OCCCO2 [compound 136] | 81.3 |
| Nc1cc2c(c(C(=O)NC[C@@H]3CCN(CC4CCCO4)C[C@H]3O)c1)OCCO2 (stereo partly drawn) [compound 22] | 17.8 |
| Nc1cc(C(=O)NC[C@@H]2CCN(CC3CCCO3)C[C@H]2O)c2c(c1Cl)OCCO2 (stereo partly drawn) [compound 10] | 6.03 |
| COCCCN1CC[C@@H](CNC(=O)c2cc(N)c(Cl)c3c2OCCCO3)[C@H](O)C1 [compound 47] | 31.6 |
| N#CCc1cc2c(c(C(=O)NC[C@@H]3CCN(CCCO)C[C@H]3O)c1)OCCCO2 [compound 120] | 43.7 |
| CCCCNc1cc2c(c(C(=O)NC[C@@H]3CCNC[C@H]3O)c1)OCCCO2 [compound 154] | 3160 |
| CO[C@@H]1CN(CCCNS(C)(=O)=O)CC[C@H]1CNC(=O)c1cc(C#N)cc2c1OCCCO2 [compound 236] | 47.9 |
| Cc1cc2c(c(C(=O)NC[C@@H]3CCN(CCCCCC(N)=O)C[C@H]3O)c1)OCCCO2 [compound 213] | 2.63 |
